Data as given in patent publication US12077483B2, “Modified amine lipids” (Intellia Therapeutics, Inc., priority 2018, dated 2024).

Experiments:
mouse B2M gene = experiment: In vivo editing in mouse liver, LNP with Cas9 mRNA and sgRNA G650, NGS; details: Table 3; guide G650; CD-1 female mice, 0.1 mpk i.v., liver at 6 or 7 days; Exp. 2-7
Experimental: LNPs were prepared using various amine lipids in a 4-component lipid system consisting of an ionizable lipid (e.g. an amine lipid), DSPC, cholesterol and PEG-2k-DMG. In assays for percent liver editing in mice, Cas9 mRNA and chemically modified sgRNA targeting a mouse sequence were formulated in LNPs, at either a 1:1 w/w ratio or a 1:2 w/w ratio.
The lipid components were dissolved in 100% ethanol with the lipid component molar ratios described below. The chemically modified sgRNA and Cas9 mRNA were combined and dissolved in 25 mM citrate, 100 mM NaCl, pH 5.0, resulting in a concentration of total RNA cargo of approximately 0.45 mg/mL. The LNPs were formulated with an N/P ratio of about 6, with the ratio of chemically modified sgRNA: Cas9 mRNA at either a 1:1 or 1:2 w/w ratio as described below.
CD-1 female mice, ranging from 6-10 weeks of age were used in each study. Animals were weighed and grouped according to body weight for preparing dosing solutions based on group average weight. LNPs were dosed via the lateral tail vein in a volume of 0.2 mL per animal (approximately 10 mL per kilogram body weight). The animals were periodically observed for adverse effects for at least 24 hours post dose.
For studies measuring in vivo editing in liver, CD-1 female mice were dosed at 0.1 mpk unless otherwise noted. Animals were euthanized at 6 or 7 days by exsanguinationvia cardiac puncture under isoflourane anesthesia. Liver tissue was collected from each animal for DNA extraction and analysis. Blood was collected into serum separator tubes or into tubes containing buffered sodium citrate for plasma as described herein. Cohorts of mice were measured for editing by Next-Generation Sequencing (NGS).
In brief, to quantitatively determine the efficiency of editing at the target location in the genome, genomic DNA was isolated and deep sequencing was utilized to identify the presence of insertions and deletions introduced by gene editing.
PCR primers were designed around the target site (e.g., B2M), and the genomic area of interest was amplified. Additional PCR was performed according to the manufacturer's protocols (Illumina) to add the necessary chemistry for sequencing. The amplicons were sequenced on an Illumina MiSeq instrument. The reads were aligned to the relevant reference genome (e.g., GRCm38) after eliminating those having low quality scores. The resulting files containing the reads were mapped to the reference genome (BAM files), where reads that overlapped the target region of interest were selected and the number of wild type reads versus the number of reads which contain an insertion, substitution, or deletion was calculated.
The editing percentage (e.g., the “editing efficiency” or “percent editing”) is defined as the total number of sequence reads with insertions or deletions over the total number of sequence reads, including wild type.
We assessed in vivo editing efficiency for materials delivered with formulations including various amine lipid compounds. Editing was measured using either G282 (SEQ ID No: 1) which targets the mouse TTR gene or G650 (SEQ ID No. 2) which targets the mouse B2M gene. Lipids described above were assessed for efficacy through in vivo editing experiments. LNPs were formulated at a 1:1 w/w ratio of sgRNA to Cas9 mRNA, and at an N/P ratio of about 6. Molar concentrations of lipids in the lipid component of the LNPs are expressed as mol % amine lipid/DSPC/cholesterol/PEG-2k-DMG, e.g. 50/10/38.5/1.5. The final LNPs were characterized to determine the encapsulation efficiency, polydispersity index, and average particle size according to the analytical methods provided above. Analysis of average particle size, polydispersity (PDI), total RNA content and encapsulation efficiency of RNA are shown in Table 2.

[1] = pKa of amine lipid by TNS fluorescence; type: physicochemical; details: probe TNS (6-(p-toluidino)-2-naphthalenesulfonic acid sodium salt), unformulated amine lipid in ethanol, sodium phosphate buffers -9.0
Procedure, shortened: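 pKa derived from a sigmoidal fit of normalized TNS fluorescence (321 nm excitation, 448 nm emission) versus pH. Lipid from ethanol stock diluted to about 100 μM final in 0.1 M phosphate buffers, pH 4.5–9.0.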

[2] = RNA encapsulation efficiency of LNP (Ribogreen fluorescence assay); type: physicochemical; details: LNP with the compound as amine lipid; Expt. 10; composition ratio (mol %) 50/9/38/3 for Cmpnd 49, 50/10/38.5/1.5 for the others
Procedure, shortened: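 LNP samples diluted in 1× TE with or without 0.2% Triton-X 100 for total or free RNA, stained ~10 min at room temperature in the dark with RiboGreen; fluorescence ex 488/em 525 nm against RNA standard curves. Encapsulation efficiency = (Total RNA−Free RNA)/Total RNA.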

mouse TTR = experiment: Serum TTR ELISA in mice after LNP delivery; type: in vivo; details: mouse serum, relative to TSS control of same experiment, dose 0.03 mpk
Procedure, shortened: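 Mouse TTR in serum was quantified by ELISA (samples diluted e.g. 10,000- and/or 2,500-fold) 6–7 days after dosing CD-1 females with LNP, typically 0.1 mpk. Values are reported relative to vehicle-treated controls (%).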

[3] = LNP average particle size and polydispersity by dynamic light scattering; type: physicochemical; details: LNP with the compound as amine lipid; Expt. 10; composition ratio (mol %) 50/9/38/3 for Cmpnd 49, 50/10/38.5/1.5 for the others
Procedure, shortened: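 LNPs were diluted in PBS to a count rate of about 200-400 kcps and measured by DLS on a Zetasizer. Size is the intensity-weighted Z-average diameter, reported with number-average diameter, and the polydispersity index describes the spread of sizes around the mean.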

| SMILES | Editing Mean % Indel (mouse B2M gene) | pKa [1] | other results |
| --- | --- | --- | --- |
| CCCCC/C=C\C/C=C\CCCCCCCC(=O)OCC(COC(=O)CCCCCCC/C=C\C/C=C\CCCCC)OC(=O)CCC(CCCCCCCCCCCCCCCC)OC(=O)OCCCN(C)C (stereo not shown) [Compound 17, 2-((4-(((3-(dimethylamino)propoxy)carbonyl)oxy)icosanoyl)oxy)propane-1,3-diyl (9Z,9′Z,12Z,12′Z)-bis(octadeca-9,12-dienoate)] | 12.3% | 6.18 |  |
| CCCCC/C=C\C/C=C\CCCCCCCC(=O)OCC(COC(=O)CCCCCCC/C=C\C/C=C\CCCCC)OC(=O)CCCC(CCCCCCCCCCCC)OC(=O)OCCCN1CCCC1 (stereo not shown) [Compound 27, 2-((5-(((3-(pyrrolidin-1-yl)propoxy)carbonyl)oxy)heptadecanoyl)oxy)propane-1,3-diyl (9Z,9′Z,12Z,12′Z)-bis(octadeca-9,12-dienoate)] | 13.0% | 5.97 |  |
| CCCCC/C=C\C/C=C\CCCCCCCC(=O)OCC(COC(=O)CCCCCCC/C=C\C/C=C\CCCCC)OC(=O)CCC(CCCCCCCCCCCC)OC(=O)C1(C)CCN(C)CC1 (stereo not shown) [Compound 10, 2-((4-((1,4-dimethylpiperidine-4-carbonyl)oxy)hexadecanoyl)oxy)propane-1,3-diyl (9Z,9′Z,12Z,12′Z)-bis(octadeca-9,12-dienoate)] | 5.3% | 6.05 |  |
| CCCCC/C=C\C/C=C\CCCCCCCC(=O)OCC(COC(=O)CCCCCCC/C=C\C/C=C\CCCCC)OC(=O)CCCC(CCCCCCCCCCCC)OC(=O)OCCCN(C)C (stereo not shown) [Compound 25, 2-((5-(((3-(dimethylamino)propoxy)carbonyl)oxy)heptadecanoyl)oxy)propane-1,3-diyl (9Z,9′Z,12Z,12′Z)-bis(octadeca-9,12-dienoate)] | 10.2% | 6.12 |  |
| CCCCC/C=C\C/C=C\CCCCCCCC(=O)OCC(COC(=O)CCCCCCC/C=C\C/C=C\CCCCC)OC(=O)CCC(CCCCCCCCCCCC)OC(=O)OCCC1CCCN1C (stereo not shown) [Compound 16, 2-((4-(((2-(1-methylpyrrolidin-2-yl)ethoxy)carbonyl)oxy)hexadecanoyl)oxy) propane-1,3-diyl (9Z,9′Z,12Z,12′Z)-bis(octadeca-9,12-dienoate)] | 10.1% | 5.72 |  |
| CCCCCC/C=C\COC(=O)CCCCCCCC(=O)OCC(COC(=O)CCCCCCCC(=O)OC/C=C\CCCCCC)OC(=O)CCC(CCCCCCCCCCCC)OC(=O)NCC1CCCN1C (stereo not shown) [Compound 24, O′1,O1-(2-((4-((((1-methylpyrrolidin-2-yl)methyl)carbamoyl)oxy)hexadecanoyl)oxy)propane-1,3-diyl)9,9′-di((Z)-non-2-en-1-yl) di(nonanedioate)] | 6.8% | 6.1 |  |
| CCCCC/C=C\C/C=C\CCCCCCCC(=O)OCC(COC(=O)CCCCCCC/C=C\C/C=C\CCCCC)OC(=O)CCCC(CCCCCCCCCCCC)OC(=O)OCCCN(C)CC (stereo not shown) [Compound 26, 2-((5-(((3-(ethyl(methyl)amino)propoxy)carbonyl)oxy)heptadecanoyl)oxy) propane-1,3-diyl (9Z,9′Z,12Z,12′Z)-bis(octadeca-9,12-dienoate)] | 5.2% | 5.82 |  |
| CCCCC/C=C\C/C=C\CCCCCCCC(=O)OCC(COC(=O)CCCCCCC/C=C\C/C=C\CCCCC)OC(=O)CCC(CCCCCCCC)OC(=O)OCCCN(C)CC (stereo not shown) [Compound 33, 2-((4-(((3-(ethyl(methyl)amino)propoxy)carbonyl)oxy)dodecanoyl)oxy)propane-1,3-diyl (9Z,9′Z, 12Z, 12′Z)-bis(octadeca-9,12-dienoate)] | 20.0% | 5.95 |  |
| CCCCC/C=C\C/C=C\CCCCCCCC(=O)OCC(COC(=O)CCCCCCC/C=C\C/C=C\CCCCC)OC(=O)CCC(CCCCCCCCCCCCCCCC)OC(=O)NCCN(C)CC (stereo not shown) [Compound 20, 2-((4-(((2-(ethyl(methyl)amino)ethyl)carbamoyl)oxy)icosanoyl)oxy)propane-1,3-diyl (9Z,9′Z,12Z,12′Z)-bis(octadeca-9,12-dienoate)] | 15.4% | 6.17 |  |
| CCCCC/C=C\C/C=C\CCCCCCCC(=O)OCC(COC(=O)CCCCCCC/C=C\C/C=C\CCCCC)OC(=O)CCC(CCCCCCCCCCCC)OC(=O)NCCN(CC)CC (stereo not shown) [Compound 15, 2-((4-(((2-(diethylamino)ethyl)carbamoyl)oxy)hexadecanoyl)oxy)propane-1,3-diyl (9Z,9′Z,12Z,12′Z)-bis(octadeca-9,12-dienoate)] | 18.0% | 5.9 |  |
| CCCCC/C=C\C/C=C\CCCCCCCC(=O)OCC(COC(=O)CCCCCCC/C=C\C/C=C\CCCCC)OC(=O)CCC(CCCCCCCCCCCC)OC(=O)NCCN(C)C (stereo not shown) [Compound 12, 2-((4-(((2-(dimethylamino)ethyl)carbamoyl)oxy)hexadecanoyl)oxy)propane-1,3-diyl (9Z,9′Z,12Z,12′Z)-bis(octadeca-9,12-dienoate)] | 5.5% | 6.82 |  |
| CCCCC/C=C\C/C=C\CCCCCCCC(=O)OCC(COC(=O)CCCCCCC/C=C\C/C=C\CCCCC)OC(=O)CCC(CCCCCCCC)OC(=O)OCCCN(CC)CC (stereo not shown) [Compound 32, 2-((4-(((3-(diethylamino)propoxy)carbonyl)oxy)dodecanoyl)oxy)propane-1,3-diyl (9Z,9′Z,12Z,12′Z)-bis(octadeca-9,12-dienoate)] | 11.6% | 5.64 |  |
| CCCCC/C=C\C/C=C\CCCCCCCC(=O)OCC(COC(=O)CCCCCCC/C=C\C/C=C\CCCCC)OC(=O)CCC(CCCCCCCC)OC(=O)OCCCN(C)C (stereo not shown) [Compound 31, 2-((4-(((3-(dimethylamino)propoxy)carbonyl)oxy)dodecanoyl)oxy)propane-1,3-diyl (9Z,9′Z,12Z,12′Z)-bis(octadeca-9,12-dienoate)] | 15.6% | 6.28 |  |
| CCCCC/C=C\C/C=C\CCCCCCCC(=O)OCC(COC(=O)CCCCCCC/C=C\C/C=C\CCCCC)OC(=O)CCC(CCCCCCCCCCCCCCCC)OC(=O)OCCCN1CCCC1 (stereo not shown) [Compound 19, 2-((4-(((3-(pyrrolidin-1-yl)propoxy)carbonyl)oxy)icosanoyl)oxy)propane-1,3-diyl (9Z,9′Z,12Z,12′Z)-bis(octadeca-9,12-dienoate)] | 13.0% | 5.99 |  |
| CCCCC/C=C\C/C=C\CCCCCCCC(=O)OCC(COC(=O)CCCCCCC/C=C\C/C=C\CCCCC)OC(=O)CCC(CCCCCCCC)OC(=O)NCCN(CC)CC (stereo not shown) [Compound 96, 2-((4-(((2-(diethylamino)ethyl)carbamoyl)oxy)dodecanoyl)oxy)propane-1,3-diyl (9Z,9′Z,12Z,12′Z)-bis(octadeca-9,12-dienoate)] |  | 6.14 | Encapsulation (%) [2]: 98%; Serum TTR % TSS (mouse TTR): 70% TSS; Num Ave Size (nm) [3]: 73 nm; PDI [3]: 0.03; Z-Ave Size (nm) [3]: 89 nm |
